Source: US20170000133A1, “BENZOXABOROLE FUNGICIDES” (SYNGENTA PARTICIPATIONS AG, priority 2013, published 2017)

Columns and labels:
[1] = test system: Glomerella lagenarium (Colletotrichum lagenarium); test: Glomerella lagenarium (Colletotrichum lagenarium) / liquid culture (anthracnose); type: cell-based; settings: Colletotrichum orbiculare, PDB potato dextrose broth, 24° C., 3-4 days after application, read-out: disease control (inhibition of growth measured photometrically)
Method in brief: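 Compound was applied at 200 ppm from DMSO solution, then potato dextrose broth carrying cryostored fungal spores was added. Growth inhibition was measured by photometry after 3-4 days of incubation at 24° C.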

[2] = test system: Puccinia recondita f. sp. tritici; test: Puccinia recondita f. sp. tritici / wheat / leaf disc preventative (brown rust); type: in vivo; settings: foliar, wheat leaf segments cv Kanzler, inoculated 1 day after application, assessed 7-9 days after application, read-out: disease control
Text: 3. Puccinia recondita f. sp. tritici/Wheat/Leaf Disc Preventative (Brown Rust): Wheat leaf segments cultivated variety (cv) Kanzler were placed on agar in 24-well plates and sprayed with formulated test compound diluted in water at an application rate of 200 ppm. The leaf disks were inoculated with a spore suspension of the fungus 1 day after application.

[3] = test system: Monographella nivalis (Microdochium nivale); test: Monographella nivalis (Microdochium nivale) / liquid culture (foot rot cereals); type: cell-based; settings: PDB potato dextrose broth, 24° C., 4-5 days after application, read-out: disease control (inhibition of growth determined photometrically)
Plasmopara viticola = test: whole plant or invertebrate; type: in vivo; settings: foliar, read-out: disease control
[4] = test system: Thanatephorus cucumeris (Rhizoctonia solani); test: Thanatephorus cucumeris (Rhizoctonia solani) / liquid culture (foot rot, damping-off); type: cell-based; settings: PDB potato dextrose broth, 24° C., 3-4 days after application, read-out: disease control (inhibition of growth determined photometrically)
Method in brief: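 Photometric growth-inhibition readout taken 3-4 days after application, with cultures incubated at 24 °C. Test compound was applied at 200 ppm from DMSO solution to R. solani mycelial fragments in PDB.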

Pythium ultimum = Pythium ultimum / liquid culture (seedling damping off); type: cell-based; settings: Globisporangium ultimum; 200 ppm; potato dextrose broth, 24° C., 2-3 days after application; read-out: disease control (inhibition of growth determined photometrically)
[5] = test system: Mycosphaerella arachidis (Cercospora arachidicola); test: Mycosphaerella arachidis (Cercospora arachidicola) / liquid culture (early leaf spot); type: cell-based; settings: PDB potato dextrose broth, 24° C., 4-5 days after application, read-out: disease control (inhibition of growth determined photometrically)
Method in brief: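 Test compound, applied at 200 ppm from DMSO solution, was combined with spore-containing potato dextrose broth. Photometric growth inhibition was scored after 4-5 days at 24° C.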

Fusarium culmorum = test: microbe, parasite or virus in culture; type: cell-based; settings: read-out: disease control (inhibition of growth determined visually)
[6] = test system: Mycosphaerella graminicola (Septoria tritici); test: Mycosphaerella graminicola (Septoria tritici) / liquid culture (Septoria blotch); type: cell-based; settings: Zymoseptoria tritici, PDB potato dextrose broth, 24° C., 4-5 days after application, read-out: disease control (inhibition of growth determined photometrically)
Method in brief: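 Growth inhibition was read photometrically 4-5 days after application, following incubation at 24° C of fungal conidia in potato dextrose broth over test compound (200 ppm, from DMSO solution) in microtiter plates.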

Gaeumannomyces graminis = Gaeumannomyces graminis / liquid culture (take-all of cereals); type: cell-based; settings: PDB potato dextrose broth, 24° C., 4-5 days after application, read-out: disease control (inhibition of growth determined photometrically)
Method in brief: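 Growth inhibition measured photometrically 4–5 days post-application, following incubation at 24 °C. Test compound, applied from DMSO at 200 ppm, mixed with fungal mycelial fragments in potato dextrose broth.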

Phytophthora infestans = test: whole plant or invertebrate; type: in vivo; settings: in Solanum lycopersicum, foliar, read-out: disease control
[7] = test system: Botryotinia fuckeliana (Botrytis cinerea); test: Botryotinia fuckeliana (Botrytis cinerea) / liquid culture (gray mould); type: cell-based; settings: Vogels broth, 24° C., 3-4 days after application, read-out: disease control (inhibition of growth determined photometrically)
Protocol: 10. Botryotinia fuckeliana (Botrytis cinerea)/Liquid Culture (Gray Mould): Conidia of the fungus from cryogenic storage were directly mixed into nutrient broth (Vogels broth). After placing a DMSO solution of test compound into a 96-well microtiter plate at an application rate of 200 ppm, the nutrient broth containing the fungal spores was added. The test plates were incubated at 24° C. and the inhibition of growth was determined photometrically 3-4 days after application.

With `O=C(OCc1ccsc1)c1ccc2c(c1)B(O)OC2` [Compound 50] as the molecule, how does the inhibition at 200 ppm [1] read?
The inhibition at 200 ppm was ≥ 80%.

What about the melting point of the same molecule?
Its melting point is 130 to 132 °C.

What about the pest or weed control at 200 ppm [2] of the same molecule?
Its pest or weed control at 200 ppm is ≥ 80%.

What about the inhibition at 200 ppm [3] of the same molecule?
The inhibition at 200 ppm was ≥ 80%.

And the pest or weed control at 200 ppm (Plasmopara viticola)?
Its pest or weed control at 200 ppm is ≥ 80%.

And the inhibition at 200 ppm [4]?
Its inhibition at 200 ppm is ≥ 80%.

What about the inhibition at 200 ppm (Pythium ultimum) of the same molecule?
The inhibition at 200 ppm was ≥ 80%.

And the inhibition at 200 ppm [5]?
The inhibition at 200 ppm was ≥ 80%.

What about the inhibition at 200 ppm (Fusarium culmorum) of the same molecule?
Its inhibition at 200 ppm is ≥ 80%.

What about the inhibition at 200 ppm [6] of the same molecule?
The inhibition at 200 ppm was ≥ 80%.

And the inhibition at 200 ppm (Gaeumannomyces graminis)?
The inhibition at 200 ppm was ≥ 80%.

With `O=C(NCc1cccc(Cl)c1)c1cc2c(cc1Cl)COB2O` [Compound 85] as the molecule, how does the pest or weed control at 200 ppm (Phytophthora infestans) read?
The pest or weed control at 200 ppm was ≥ 80%.

What about the melting point of the same molecule?
The melting point was 263 to 265 °C.

What about the pest or weed control at 200 ppm (Plasmopara viticola) of the same molecule?
The pest or weed control at 200 ppm was ≥ 80%.

What about the inhibition at 200 ppm (Pythium ultimum) of the same molecule?
The inhibition at 200 ppm was ≥ 80%.

What about the inhibition at 200 ppm (Gaeumannomyces graminis) of the same molecule?
The inhibition at 200 ppm was ≥ 80%.

Which inhibition at 200 ppm [1] does the source give for `O=C(NCc1ccccc1F)c1cc2c(cc1F)COB2O` [Compound 107] here?
Its inhibition at 200 ppm is ≥ 80%.

What about the pest or weed control at 200 ppm (Phytophthora infestans) of the same molecule?
Its pest or weed control at 200 ppm is ≥ 80%.

What about the melting point of the same molecule?
Its melting point is 175 to 177 °C.

What about the pest or weed control at 200 ppm (Plasmopara viticola) of the same molecule?
The pest or weed control at 200 ppm was ≥ 80%.

What about the inhibition at 200 ppm (Pythium ultimum) of the same molecule?
The inhibition at 200 ppm was ≥ 80%.

With `Cc1cccc(Cl)c1NC(=O)c1cc2c(cc1Cl)COB2O` [Compound 114] as the molecule, how does the inhibition at 200 ppm [1] read?
Its inhibition at 200 ppm is ≥ 80%.

And the pest or weed control at 200 ppm (Phytophthora infestans)?
Its pest or weed control at 200 ppm is ≥ 80%.

And the inhibition at 200 ppm [3]?
Its inhibition at 200 ppm is ≥ 80%.

And the pest or weed control at 200 ppm (Plasmopara viticola)?
The pest or weed control at 200 ppm was ≥ 80%.

And the inhibition at 200 ppm (Fusarium culmorum)?
The inhibition at 200 ppm was ≥ 80%.

What about the inhibition at 200 ppm [6] of the same molecule?
The inhibition at 200 ppm was ≥ 80%.

Which results are given for `Cc1cccc(Cl)c1NC(=O)c1cc2c(cc1F)COB2O` [Compound 150]?
inhibition at 200 ppm [1]: ≥ 80%; pest or weed control at 200 ppm (Phytophthora infestans): ≥ 80%; melting point: 212 to 214 °C; inhibition at 200 ppm [3]: ≥ 80%; inhibition at 200 ppm (Pythium ultimum): ≥ 80%; inhibition at 200 ppm (Fusarium culmorum): ≥ 80%

With `COC(=O)c1sccc1NC(=O)c1cc2c(cc1Cl)COB2O` [Compound 169] as the molecule, how does the inhibition at 200 ppm [1] read?
Its inhibition at 200 ppm is ≥ 80%.

What about the melting point of the same molecule?
The melting point was 267 to 269 °C.

What about the pest or weed control at 200 ppm [2] of the same molecule?
The pest or weed control at 200 ppm was ≥ 80%.

And the inhibition at 200 ppm [3]?
The inhibition at 200 ppm was ≥ 80%.

What about the pest or weed control at 200 ppm (Plasmopara viticola) of the same molecule?
Its pest or weed control at 200 ppm is ≥ 80%.

And the inhibition at 200 ppm [6]?
The inhibition at 200 ppm was ≥ 80%.

With `COC(=O)c1sccc1NC(=O)c1cc2c(cc1F)COB2O` [Compound 186] as the molecule, how does the pest or weed control at 200 ppm (Phytophthora infestans) read?
The pest or weed control at 200 ppm was ≥ 80%.

And the melting point?
Its melting point is 302 to 304 °C.

What about the inhibition at 200 ppm [3] of the same molecule?
Its inhibition at 200 ppm is ≥ 80%.

What about the pest or weed control at 200 ppm (Plasmopara viticola) of the same molecule?
The pest or weed control at 200 ppm was ≥ 80%.

And the inhibition at 200 ppm (Pythium ultimum)?
Its inhibition at 200 ppm is ≥ 80%.

With `Cc1ccc(-c2csc(NC(=O)c3cc4c(cc3F)COB4O)n2)cc1` [Compound 188] as the molecule, how does the pest or weed control at 200 ppm [2] read?
The pest or weed control at 200 ppm was ≥ 80%.

What about the inhibition at 200 ppm [3] of the same molecule?
Its inhibition at 200 ppm is ≥ 80%.

And the pest or weed control at 200 ppm (Plasmopara viticola)?
The pest or weed control at 200 ppm was ≥ 80%.

Which inhibition at 200 ppm [1] does the source give for `C[Si](C)(C)CCCOC(=O)c1cc2c(cc1Cl)COB2O` [Compound 194] here?
Its inhibition at 200 ppm is ≥ 80%.

And the inhibition at 200 ppm [7]?
The inhibition at 200 ppm was ≥ 80%.

What about the inhibition at 200 ppm [3] of the same molecule?
Its inhibition at 200 ppm is ≥ 80%.

And the inhibition at 200 ppm [5]?
Its inhibition at 200 ppm is ≥ 80%.

And the inhibition at 200 ppm [6]?
The inhibition at 200 ppm was ≥ 80%.

What about the inhibition at 200 ppm (Gaeumannomyces graminis) of the same molecule?
Its inhibition at 200 ppm is ≥ 80%.

What does the source list for `C#CC(CC)OC(=O)c1cc2c(cc1Cl)COB2O` (centres unmarked) [Compound 201]?
inhibition at 200 ppm [1]: ≥ 80%; inhibition at 200 ppm [7]: ≥ 80%; inhibition at 200 ppm [3]: ≥ 80%; pest or weed control at 200 ppm (Plasmopara viticola): ≥ 80%; inhibition at 200 ppm (Pythium ultimum): ≥ 80%; inhibition at 200 ppm [6]: ≥ 80%; inhibition at 200 ppm (Gaeumannomyces graminis): ≥ 80%

With `O=C(OCc1cccc2ccccc12)c1cc2c(cc1Cl)COB2O` [Compound 207] as the molecule, how does the pest or weed control at 200 ppm (Phytophthora infestans) read?
Its pest or weed control at 200 ppm is ≥ 80%.

What about the pest or weed control at 200 ppm [2] of the same molecule?
Its pest or weed control at 200 ppm is ≥ 80%.

And the inhibition at 200 ppm [3]?
The inhibition at 200 ppm was ≥ 80%.

And the inhibition at 200 ppm (Pythium ultimum)?
Its inhibition at 200 ppm is ≥ 80%.

What about the inhibition at 200 ppm (Gaeumannomyces graminis) of the same molecule?
The inhibition at 200 ppm was ≥ 80%.

What does the source list for `C#CC(OC(=O)c1cc2c(cc1Cl)COB2O)c1ccccc1` (centres unmarked) [Compound 211]?
inhibition at 200 ppm [1]: ≥ 80%; pest or weed control at 200 ppm (Phytophthora infestans): ≥ 80%; inhibition at 200 ppm [3]: ≥ 80%; pest or weed control at 200 ppm (Plasmopara viticola): ≥ 80%; inhibition at 200 ppm [4]: ≥ 80%; inhibition at 200 ppm (Pythium ultimum): ≥ 80%; inhibition at 200 ppm [6]: ≥ 80%

For `C[Si](C)(C)/C=C/COC(=O)c1cc2c(cc1Cl)COB2O` [Compound 216], which inhibition at 200 ppm [7] is on record?
The inhibition at 200 ppm was ≥ 80%.

What about the inhibition at 200 ppm [3] of the same molecule?
The inhibition at 200 ppm was ≥ 80%.

What about the inhibition at 200 ppm [5] of the same molecule?
Its inhibition at 200 ppm is ≥ 80%.

And the inhibition at 200 ppm [6]?
Its inhibition at 200 ppm is ≥ 80%.

And the inhibition at 200 ppm (Gaeumannomyces graminis)?
Its inhibition at 200 ppm is ≥ 80%.
